According to BindingDB's records for doi:10.1016/j.ejmech.2010.08.026 (Instituto De Parasitología Y Biomedicina …, 2010):

Target: T1, Purine nucleoside phosphorylase (Plasmodium falciparum, UniProt Q8T9Z7)
T1 sequence (Q8T9Z7 whole entry): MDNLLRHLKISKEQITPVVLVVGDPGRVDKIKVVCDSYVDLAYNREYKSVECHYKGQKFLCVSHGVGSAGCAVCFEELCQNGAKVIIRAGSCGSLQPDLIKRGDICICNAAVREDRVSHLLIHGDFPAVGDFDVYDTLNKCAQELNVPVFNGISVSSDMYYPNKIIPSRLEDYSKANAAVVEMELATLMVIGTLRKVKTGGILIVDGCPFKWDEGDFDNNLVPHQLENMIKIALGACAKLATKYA
Assay: Inhibition of Plasmodium falciparum PNP expressed in Escherichia coli BL21(DE3) cells by spectrophotometry

SMILES: O=c1[nH]c(O)c(Cc2ccccc2)c(=O)[nH]1 [5-benzylpyrimidine-2,4,6(1H,3H,5H)-trione]
- IC50: > 1000 µM
